Source: patent US6737383B1, “Herbicidal oxadiazolidines” (priority 1999, dated 2004)

Experiments:
smallflower flatsedge = test: Test B flood test smallflower flatsedge; assay type: in vivo, Cyperus difformis
Protocol: (§1) At the same time, these crop and weed species were also treated with postemergence applications of test chemicals formulated in the same manner. Plants ranged in height from 2 to 18 cm (1- to 4-leaf stage) for postemergence treatments. Plant species in the flood test consisted of rice (Oryza sativa), smallflower flatsedge (Cyperus difformis), duck salad (Heteranthera limosa) and bamyardgrass (Echinochloa crus-galli) grown to the 2-leaf stage for testing. Treated plants and controls were maintained in a greenhouse for twelve to sixteen days, after which all species were compared to controls and visually evaluated. Plant response ratings, summarized in Table B, are based on a scale of 0 to 10 where 0 is no effect and 10 is complete control. A dash (−) response means no test result.

duck salad = test: Test B flood test duck salad; assay type: in vivo, Heteranthera limosa
Protocol: as §1

bamyardgrass = test: Test B flood test barnyardgrass; assay type: in vivo, Echinochloa crus-galli
Protocol: as §1

bedstraw = test: Test B pre/postemergence bedstraw; assay type: in vivo, Galium aparine
Outline: (§2)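 Response is a visual 0-to-10 score relative to untreated plants, where 0 means no effect and 10 means complete control, taken twelve to sixteen days after application. Treatments went onto soil at planting and onto foliage of 1- to 4-leaf plants, using a surfactant-containing non-phytotoxic solvent.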

blackgrass = test: Test B pre/postemergence blackgrass; assay type: in vivo, Alopecurus myosuroides
Outline: as §2

surinam grass = test: Test B pre/postemergence surinam grass; assay type: in vivo, Brachiaria decumbens; conditions: Postemergence
Outline: as §2

cocklebur = test: Test B pre/postemergence cocklebur; assay type: in vivo, Xanthium strumarium
Outline: as §2

corn = test: Test B pre/postemergence corn; assay type: in vivo, Zea mays
Outline: as §2

crabgrass = test: Test B pre/postemergence crabgrass; assay type: in vivo, Digitaria sanguinalis
Outline: as §2

giant foxtail = test: Test B pre/postemergence giant foxtail; assay type: in vivo, Setaria faberii
Outline: as §2

morningglory = test: Test B pre/postemergence morningglory; assay type: in vivo, Ipomoea hederacea
Outline: as §2

pigweed = test: Test B pre/postemergence pigweed; assay type: in vivo, Amaranthus retroflexus
Outline: as §2

rape = test: Test B pre/postemergence rape; assay type: in vivo, Brassica napus
Outline: as §2

soybean = test: Test B pre/postemergence soybean; assay type: in vivo, Glycine max
Outline: as §2

sugar beet = test: Test B pre/postemergence sugar beet; assay type: in vivo, Beta vulgaris
Outline: as §2

velvetleaf = test: Test B pre/postemergence velvetleaf; assay type: in vivo, Abutilon theophrasti
Outline: as §2

wheat = test: Test B pre/postemergence wheat; assay type: in vivo, Triticum aestivum
Outline: as §2

wild oat = test: Test B pre/postemergence wild oat; assay type: in vivo, Avena fatua
Outline: as §2

purple nutsedge = test: Test B pre/postemergence purple nutsedge; assay type: in vivo, Cyperus rotundus
Outline: as §2

[1] = Rate 62 g/ha, flood test species, Pre-emergence, visual evaluation after twelve to sixteen days
[2] = Rate 125 g/ha, under heading Pre-emergence, flood test species, visual evaluation after twelve to sixteen days
[3] = Rate 250 g/ha, Pre-emergence (flood test species), scale 0 to 10, 0 is no effect, 10 is complete control
[4] = Rate 500 g/ha, Pre-emergence section of Table B, 0 to 10 scale (0 no effect, 10 complete control)
[5] = Postemergence, Rate 31 g/ha, visual rating, scale 0 to 10 (0 no effect, 10 complete control)
[6] = Postemergence, Rate 62 g/ha, scale 0 to 10, 0 is no effect, 10 is complete control
[7] = Postemergence, Rate 125 g/ha, scale of 0 to 10 where 0 is no effect and 10 is complete control
[8] = Preemergence, Rate 31 g/ha, visual rating, scale 0 to 10 (0 no effect, 10 complete control)
[9] = Preemergence, Rate 250 g/ha, scale 0 (no effect) to 10 (complete control)
[10] = Rate 62 g/ha, Preemergence, scale 0 to 10
[11] = Rate 125 g/ha, Preemergence, scale 0 to 10 (0 no effect, 10 complete control)
[12] = Rate 250 g/ha, Postemergence, scale 0 to 10, 0 is no effect, 10 is complete control

CC(C)N(C(=O)n1oc(=O)n(CCc2ccccc2)c1=O)c1ccc(Cl)cc1 [Compound 538]
Plant response rating, S. Flatsedge (0 to 10 scale, 0 is no effect, 10 is complete control) (smallflower flatsedge; [1]): 0 | S. Flatsedge plant response rating (0 to 10 scale, 0 is no effect, 10 is complete control) (smallflower flatsedge; [2]): 0 | S. Flatsedge plant response rating (smallflower flatsedge; [3]): 0 | S. Flatsedge plant response rating (smallflower flatsedge; [4]): 0 | Plant response rating, Ducksalad (0 to 10 scale, 0 is no effect, 10 is complete control) (duck salad; [1]): 0 | Ducksalad plant response rating (0 to 10 scale, 0 is no effect, 10 is complete control) (duck salad; [2]): 0 | Ducksalad plant response rating (duck salad; [3]): 0 | Ducksalad plant response rating (duck salad; [4]): 0 | Plant response rating, Barnyardgrass (0 to 10 scale, 0 is no effect, 10 is complete control) (bamyardgrass; [1]): 0 | Barnyardgrass plant response rating (0 to 10 scale, 0 is no effect, 10 is complete control) (bamyardgrass; [2]): 0 | Barnyardgrass plant response rating (bamyardgrass; [3]): 0 | Barnyardgrass plant response rating (bamyardgrass; [4]): 0

CCOP(=O)(OCC)C(C)n1c(=O)on(C(=O)N(c2ccc(F)cc2F)C(C)C)c1=O (stereo not drawn) [Compound 776]
Bedstraw plant response rating (bedstraw; [5]): 0 | Plant response rating, Bedstraw (bedstraw; [6]): 0 | Bedstraw plant response rating (bedstraw; [7]): 3 | Bedstraw plant response rating (bedstraw; [8]): 0 | Bedstraw plant response rating (bedstraw; [9]): 0 | Bedstraw plant response rating (bedstraw; [10]): 0 | Bedstraw plant response rating (bedstraw; [11]): 0 | Bedstraw plant response rating (bedstraw; [12]): 3 | Blackgrass plant response rating (blackgrass; [5]): 2 | Plant response rating, Blackgrass (blackgrass; [6]): 2 | Blackgrass plant response rating (blackgrass; [7]): 2 | Blackgrass plant response rating (blackgrass; [8]): 0 | Blackgrass plant response rating (blackgrass; [9]): 2 | Blackgrass plant response rating (blackgrass; [10]): 0 | Blackgrass plant response rating (blackgrass; [11]): 0 | Blackgrass plant response rating (blackgrass; [12]): 2 | B. signalgrass plant response rating (surinam grass; Rate 31 g/ha, visual rating, scale 0 to 10 (0 no effect, 10 complete control)): 0 | Plant response rating, B. signalgrass (surinam grass; Rate 62 g/ha, scale 0 to 10, 0 is no effect, 10 is complete control): 0 | B. signalgrass plant response rating (surinam grass; Rate 125 g/ha, scale of 0 to 10 where 0 is no effect and 10 is complete control): 0 | B. signalgrass plant response rating (surinam grass; Rate 250 g/ha, scale 0 to 10, 0 is no effect, 10 is complete control): 0 | Cocklebur plant response rating (cocklebur; [5]): 0 | Plant response rating, Cocklebur (cocklebur; [6]): 0 | Cocklebur plant response rating (cocklebur; [7]): 0 | Cocklebur plant response rating (cocklebur; [8]): 0 | Cocklebur plant response rating (cocklebur; [12]): 0 | Corn plant response rating (corn; [5]): 0 | Plant response rating, Corn (corn; [6]): 0 | Corn plant response rating (corn; [7]): 0 | Corn plant response rating (corn; [8]): 0 | Corn plant response rating (corn; [9]): 1 | Corn plant response rating (corn; [10]): 0 | Corn plant response rating (corn; [11]): 0 | Corn plant response rating (corn; [12]): 0 | Crabgrass plant response rating (crabgrass; [5]): 2 | Plant response rating, Crabgrass (crabgrass; [6]): 2 | Crabgrass plant response rating (crabgrass; [7]): 2 | Crabgrass plant response rating (crabgrass; [8]): 5 | Crabgrass plant response rating (crabgrass; [9]): 9 | Crabgrass plant response rating (crabgrass; [10]): 5 | Crabgrass plant response rating (crabgrass; [11]): 8 | Crabgrass plant response rating (crabgrass; [12]): 2 | Giant foxtail plant response rating (giant foxtail; [5]): 2 | Plant response rating, Giant foxtail (giant foxtail; [6]): 2 | Giant foxtail plant response rating (giant foxtail; [7]): 2 | Giant foxtail plant response rating (giant foxtail; [8]): 5 | Giant foxtail plant response rating (giant foxtail; [9]): 9 | Giant foxtail plant response rating (giant foxtail; [10]): 9 | Giant foxtail plant response rating (giant foxtail; [11]): 9 | Giant foxtail plant response rating (giant foxtail; [12]): 2 | Morningglory plant response rating (morningglory; [5]): 4 | Plant response rating, Morningglory (morningglory; [6]): 7 | Morningglory plant response rating (morningglory; [7]): 7 | Morningglory plant response rating (morningglory; [10]): 0 | Morningglory plant response rating (morningglory; [11]): 2 | Redroot pigweed plant response rating (pigweed; [5]): 0 | Plant response rating, Redroot pigweed (pigweed; [6]): 2 | Redroot pigweed plant response rating (pigweed; [7]): 2 | Redroot pigweed plant response rating (pigweed; [10]): 0 | Redroot pigweed plant response rating (pigweed; [11]): 0 | Redroot pigweed plant response rating (pigweed; [12]): 2 | Rape plant response rating (rape; [5]): 0 | Plant response rating, Rape (rape; [6]): 2 | Rape plant response rating (rape; [7]): 2 | Rape plant response rating (rape; [10]): 0 | Rape plant response rating (rape; [11]): 0 | Rape plant response rating (rape; [12]): 2 | Soybean plant response rating (soybean; [5]): 1 | Plant response rating, Soybean (soybean; [6]): 2 | Soybean plant response rating (soybean; [10]): 0 | Soybean plant response rating (soybean; [11]): 0 | Soybean plant response rating (soybean; [12]): 2 | Sugarbeets plant response rating (sugar beet; [5]): 0 | Plant response rating, Sugarbeets (sugar beet; [6]): 0 | Sugarbeets plant response rating (sugar beet; [10]): 0 | Sugarbeets plant response rating (sugar beet; [11]): 0 | Sugarbeets plant response rating (sugar beet; [12]): 3 | Velvetleaf plant response rating (velvetleaf; [5]): 2 | Plant response rating, Velvetleaf (velvetleaf; [6]): 3 | Velvetleaf plant response rating (velvetleaf; [10]): 0 | Velvetleaf plant response rating (velvetleaf; [11]): 0 | Velvetleaf plant response rating (velvetleaf; [12]): 3 | Wheat plant response rating (wheat; [5]): 0 | Plant response rating, Wheat (wheat; [6]): 0 | Wheat plant response rating (wheat; [10]): 0 | Wheat plant response rating (wheat; [11]): 2 | Wheat plant response rating (wheat; [12]): 0 | Wild oats plant response rating (wild oat; [5]): 0 | Plant response rating, Wild oats (wild oat; [6]): 0 | Wild oats plant response rating (wild oat; [10]): 2 | Wild oats plant response rating (wild oat; [11]): 2 | Wild oats plant response rating (wild oat; [12]): 0 | Nutsedge plant response rating (purple nutsedge; [5]): 0 | Plant response rating, Nutsedge (purple nutsedge; [6]): 0 | Nutsedge plant response rating (purple nutsedge; [7]): 0 | Nutsedge plant response rating (purple nutsedge; [10]): 0 | Nutsedge plant response rating (purple nutsedge; [12]): 0
